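1) Cells in 96-well plates. 2) Compound, 48 h, 5 concentrations. 3) Linear interpolation between surrounding doses. 4) Unreached endpoint = highest concentration. GI50 is the concentration that inhibits growth by half. At the TGI there is no net growth.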
Legend:
Assay in all cases: growth of human tumour cells (NCI), 48 h
786-0 renal = tested on: 786-0 renal
A498 renal = tested on: A498 renal
A549 NSCLC = tested on: A549 NSCLC
CAKI-1 renal = tested on: CAKI-1 renal
CCRF-CEM leukemia = tested on: CCRF-CEM leukemia
COLO 205 colon = tested on: COLO 205 colon
DLD-1 colon = tested on: DLD-1 colon
DMS 273 small cell lung = tested on: DMS 273 small cell lung
EKVX NSCLC = tested on: EKVX NSCLC
HCT-116 colon = tested on: HCT-116 colon
HCT-15 colon = tested on: HCT-15 colon
HL-60(TB) leukemia = tested on: HL-60(TB) leukemia
HOP-18 NSCLC = tested on: HOP-18 NSCLC
HOP-62 NSCLC = tested on: HOP-62 NSCLC
HOP-92 NSCLC = tested on: HOP-92 NSCLC
HT29 colon = tested on: HT29 colon
IGROV1 ovarian = tested on: IGROV1 ovarian
K-562 leukemia = tested on: K-562 leukemia
KM12 colon = tested on: KM12 colon
KM20L2 colon = tested on: KM20L2 colon
LOX IMVI melanoma = tested on: LOX IMVI melanoma
LXFL 529 NSCLC = tested on: LXFL 529 NSCLC
M14 melanoma = tested on: M14 melanoma
MALME-3M melanoma = tested on: MALME-3M melanoma
MOLT-4 leukemia = tested on: MOLT-4 leukemia
NCI-H226 lung = tested on: NCI-H226 lung
NCI-H23 lung = tested on: NCI-H23 lung
NCI-H460 lung = tested on: NCI-H460 lung
NCI-H522 lung = tested on: NCI-H522 lung
OVCAR-3 ovarian = tested on: OVCAR-3 ovarian
OVCAR-4 ovarian = tested on: OVCAR-4 ovarian
OVCAR-5 ovarian = tested on: OVCAR-5 ovarian
OVCAR-8 ovarian = tested on: OVCAR-8 ovarian
RPMI-8226 leukemia = tested on: RPMI-8226 leukemia
RXF 393 renal = tested on: RXF 393 renal
SF-295 CNS = tested on: SF-295 CNS
SF-539 CNS = tested on: SF-539 CNS
SK-MEL-2 melanoma = tested on: SK-MEL-2 melanoma
SK-MEL-5 melanoma = tested on: SK-MEL-5 melanoma
SK-OV-3 ovarian = tested on: SK-OV-3 ovarian
SN12C renal = tested on: SN12C renal
SNB-19 CNS = tested on: SNB-19 CNS
SNB-75 CNS = tested on: SNB-75 CNS
SNB-78 CNS = tested on: SNB-78 CNS
SR leukemia = tested on: SR leukemia
SW-620 colon = tested on: SW-620 colon
TK-10 renal = tested on: TK-10 renal
U251 CNS = tested on: U251 CNS
UACC-257 melanoma = tested on: UACC-257 melanoma
UACC-62 melanoma = tested on: UACC-62 melanoma
UO-31 renal = tested on: UO-31 renal
XF 498 CNS = tested on: XF 498 CNS
ACHN renal = tested on: ACHN renal
BT-549 breast = tested on: BT-549 breast
DU-145 prostate = tested on: DU-145 prostate
HCC-2998 colon = tested on: HCC-2998 colon
HS 578T breast = tested on: HS 578T breast
MCF7 breast = tested on: MCF7 breast
MDA-MB-231 breast = tested on: MDA-MB-231 breast
MDA-MB-435 = tested on: MDA-MB-435
MDA-N = tested on: MDA-N
NCI/ADR-RES ovarian = tested on: NCI/ADR-RES ovarian
PC-3 prostate = tested on: PC-3 prostate
SF-268 CNS = tested on: SF-268 CNS
SK-MEL-28 melanoma = tested on: SK-MEL-28 melanoma
T-47D breast = tested on: T-47D breast

Structure (SMILES): O=C1C2C3C=C4c5ccccc5N(c5ccccc5)C4(C2C(=O)N1c1ccc(Br)cc1)[C@H]1C(=O)N(c2ccc(Br)cc2)C(=O)[C@@H]31 (stereo not given in full)
- TGI (786-0 renal): > 100 µM
- TGI (A498 renal): > 100 µM
- TGI (A549 NSCLC): > 100 µM
- TGI (CAKI-1 renal): 81.5 µM
- TGI (CCRF-CEM leukemia): > 100 µM
- TGI (COLO 205 colon): > 100 µM
- TGI (DLD-1 colon): > 100 µM
- TGI (DMS 273 small cell lung): > 100 µM
- TGI (EKVX NSCLC): > 100 µM
- TGI (HCT-116 colon): > 100000 nM
- TGI (HCT-15 colon): > 100 µM
- TGI (HL-60(TB) leukemia): > 100 µM
- TGI (HOP-18 NSCLC): > 100 µM
- TGI (HOP-62 NSCLC): > 100 µM
- TGI (HOP-92 NSCLC): > 100 µM
- TGI (HT29 colon): > 100 µM
- TGI (IGROV1 ovarian): > 100 µM
- TGI (K-562 leukemia): > 100000 nM
- TGI (KM12 colon): > 100 µM
- TGI (KM20L2 colon): > 100 µM
- TGI (LOX IMVI melanoma): > 100000 nM
- TGI (LXFL 529 NSCLC): > 100 µM
- TGI (M14 melanoma): > 100000 nM
- TGI (MALME-3M melanoma): > 100000 nM
- TGI (MOLT-4 leukemia): > 100 µM
- TGI (NCI-H226 lung): > 100 µM
- TGI (NCI-H23 lung): > 100 µM
- TGI (NCI-H460 lung): > 100 µM
- TGI (NCI-H522 lung): > 100 µM
- TGI (OVCAR-3 ovarian): > 100 µM
- TGI (OVCAR-4 ovarian): > 100 µM
- TGI (OVCAR-5 ovarian): > 100 µM
- TGI (OVCAR-8 ovarian): > 100 µM
- TGI (RPMI-8226 leukemia): > 100 µM
- TGI (RXF 393 renal): > 100000 nM
- TGI (SF-295 CNS): > 100 µM
- TGI (SF-539 CNS): > 100 µM
- TGI (SK-MEL-2 melanoma): > 100 µM
- TGI (SK-MEL-5 melanoma): > 100 µM
- TGI (SK-OV-3 ovarian): > 100 µM
- TGI (SN12C renal): > 100 µM
- TGI (SNB-19 CNS): > 100 µM
- TGI (SNB-75 CNS): > 100 µM
- TGI (SNB-78 CNS): > 100 µM
- TGI (SR leukemia): > 100 µM
- TGI (SW-620 colon): > 100000 nM
- TGI (TK-10 renal): > 100 µM
- TGI (U251 CNS): > 100 µM
- TGI (UACC-257 melanoma): > 100 µM
- TGI (UACC-62 melanoma): > 100 µM
- TGI (UO-31 renal): > 100 µM
- TGI (XF 498 CNS): > 100 µM

Structure (SMILES): Nc1nc(N)c2cc(Sc3cccc(C(F)(F)F)c3)ccc2n1
- TGI (786-0 renal): 5.38 µM
- GI50 (A498 renal): 2170 nM
- TGI (A498 renal): 14.4 µM
- TGI (A549 NSCLC): 13.2 µM
- TGI (ACHN renal): 14.7 µM
- TGI (BT-549 breast): 20.5 µM
- TGI (CAKI-1 renal): 16.7 µM
- TGI (CCRF-CEM leukemia): 15.3 µM
- TGI (COLO 205 colon): 3.02 µM
- TGI (DU-145 prostate): 14.4 µM
- TGI (EKVX NSCLC): 19.8 µM
- TGI (HCC-2998 colon): 2830 nM
- TGI (HCT-116 colon): 1330 nM
- TGI (HCT-15 colon): 12.7 µM
- TGI (HL-60(TB) leukemia): 3.24 µM
- TGI (HOP-62 NSCLC): 15.9 µM
- TGI (HOP-92 NSCLC): 9.54 µM
- TGI (HS 578T breast): 10.2 µM
- TGI (HT29 colon): 8.16 µM
- TGI (IGROV1 ovarian): 15.6 µM
- TGI (K-562 leukemia): 1920 nM
- TGI (KM12 colon): 11.3 µM
- GI50 (LOX IMVI melanoma): 307 nM
- TGI (LOX IMVI melanoma): 1820 nM
- TGI (M14 melanoma): 2210 nM
- TGI (MALME-3M melanoma): 2910 nM
- TGI (MCF7 breast): 16.2 µM
- TGI (MDA-MB-231 breast): 7.14 µM
- TGI (MDA-MB-435): 5.81 µM
- TGI (MDA-N): 13.9 µM
- TGI (MOLT-4 leukemia): 6.08 µM
- GI50 (NCI-H226 lung): 2340 nM
- TGI (NCI-H226 lung): 8.15 µM
- TGI (NCI-H23 lung): 16.4 µM
- TGI (NCI-H460 lung): 4.77 µM
- TGI (NCI-H522 lung): 8.34 µM
- TGI (NCI/ADR-RES ovarian): 14.8 µM
- TGI (OVCAR-3 ovarian): 13.6 µM
- TGI (OVCAR-4 ovarian): 18.6 µM
- TGI (OVCAR-5 ovarian): 16.3 µM
- GI50 (OVCAR-8 ovarian): 713 nM
- TGI (OVCAR-8 ovarian): 4.55 µM
- GI50 (PC-3 prostate): 698 nM
- TGI (PC-3 prostate): 14.9 µM
- TGI (RPMI-8226 leukemia): 5.43 µM
- GI50 (RXF 393 renal): 1010 nM
- TGI (RXF 393 renal): 2530 nM
- TGI (SF-268 CNS): 19 µM
- TGI (SF-295 CNS): 8.97 µM
- TGI (SF-539 CNS): 13.9 µM
- TGI (SK-MEL-2 melanoma): 5.25 µM
- TGI (SK-MEL-28 melanoma): 7.61 µM
- TGI (SK-MEL-5 melanoma): 5.86 µM
- TGI (SK-OV-3 ovarian): 21 µM
- TGI (SN12C renal): 15.7 µM
- TGI (SNB-19 CNS): 18.4 µM
- TGI (SNB-75 CNS): 15.9 µM
- TGI (SR leukemia): 4.71 µM
- GI50 (SW-620 colon): 267 nM
- TGI (SW-620 colon): 1570 nM
- GI50 (T-47D breast): 1710 nM
- TGI (T-47D breast): 3.6 µM
- TGI (TK-10 renal): 14 µM
- TGI (U251 CNS): 4.78 µM
- GI50 (UACC-257 melanoma): 1270 nM
- TGI (UACC-257 melanoma): 3.36 µM
- TGI (UACC-62 melanoma): 5.49 µM
- TGI (UO-31 renal): 9.84 µM

Reference: PubChem BioAssay (NCI)
